Here are results for 27 molecules from EP4800016A1, “METTL3 INHIBITOR” (Hangzhou Bangshun Pharmaceutical Co., Ltd., priority 2023, dated 2025).

The target in this experiment is T1, METTL3/14 (Homo sapiens, UniProt Q86U44).
T1 construct: purchased active motif 31570
T1 sequence (Q86U44 whole entry): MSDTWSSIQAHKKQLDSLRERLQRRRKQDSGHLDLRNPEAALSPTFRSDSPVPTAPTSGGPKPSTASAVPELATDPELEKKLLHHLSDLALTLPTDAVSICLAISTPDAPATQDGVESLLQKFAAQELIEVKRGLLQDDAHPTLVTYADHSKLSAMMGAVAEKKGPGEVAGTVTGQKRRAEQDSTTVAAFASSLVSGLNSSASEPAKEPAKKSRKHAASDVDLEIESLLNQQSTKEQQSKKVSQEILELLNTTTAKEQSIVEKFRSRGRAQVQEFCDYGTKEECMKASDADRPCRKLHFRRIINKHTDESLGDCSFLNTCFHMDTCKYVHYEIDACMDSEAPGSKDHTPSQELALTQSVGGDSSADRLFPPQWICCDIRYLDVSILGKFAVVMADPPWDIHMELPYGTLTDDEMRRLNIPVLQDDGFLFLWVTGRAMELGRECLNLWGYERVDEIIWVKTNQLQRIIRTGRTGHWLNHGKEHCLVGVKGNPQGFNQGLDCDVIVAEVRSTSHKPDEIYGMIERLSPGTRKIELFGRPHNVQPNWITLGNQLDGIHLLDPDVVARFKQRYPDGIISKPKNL
T1 sequence (Q9HCE5 whole entry partner): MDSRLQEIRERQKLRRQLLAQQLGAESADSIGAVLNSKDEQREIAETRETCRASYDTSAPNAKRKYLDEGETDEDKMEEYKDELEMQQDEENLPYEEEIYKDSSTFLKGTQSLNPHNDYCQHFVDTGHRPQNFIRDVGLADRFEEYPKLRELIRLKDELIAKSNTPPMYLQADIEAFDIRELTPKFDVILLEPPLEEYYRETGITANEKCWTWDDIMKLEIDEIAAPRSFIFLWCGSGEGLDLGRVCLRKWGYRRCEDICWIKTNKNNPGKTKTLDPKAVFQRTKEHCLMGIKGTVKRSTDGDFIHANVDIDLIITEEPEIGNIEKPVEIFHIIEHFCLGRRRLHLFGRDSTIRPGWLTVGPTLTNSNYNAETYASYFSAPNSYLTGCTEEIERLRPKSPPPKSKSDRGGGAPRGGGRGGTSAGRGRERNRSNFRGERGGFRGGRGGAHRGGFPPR
Nature of the experiment: METTL3/14 methyltransferase activity assay (HTRF). Format: biochemical. The settings on record: 10 concentrations, 3-fold dilution from 10 µM. On the procedure: The final initial concentration of the compound was 10 µM, with 3-fold serial dilution to give a total of 10 concentrations. 100 nL of the compound was transferred to a 384-well plate and centrifuged at 1000 RPM. 2.5 µL of METTL3/14 (active motif, Cat No. 31570) was added to the test wells and incubated at 25°C for 10 min. 2.5 µL of METTL3-Biotin & SAM (GenScript) was added to the test wells andincubated at 25°C for 60 min. 2.5 µL of YTHDF1 (active motif, Cat No. 31608) was added to the test wells and centrifuged at 1000 RPM. 2.5 µL of Streptavidin-Tb (Perkin Elmer Cat No. 61SATLB) & Flag-mede (Perkin Elmer Cat No. 61FG2DLA) was added to the test wells and centrifuged at 1000 RPM. Incubated at 25°C for 60 min. HTRF was measured using a Plate reader. The results of each compound are shown in Table 1, where A+indicates <10nM, A indicates 10-100nM, B indicates 100-1000nM, and C indicates >1000nM.
(TR-FRET usually uses a lanthanide donor and a delayed reading to cut background.)
The term IC50 denotes the concentration that inhibits the measured activity by half. `O=C(NCc1ccc2cc(CNCC3CCC3)[nH]c2c1)c1cn2ncccc2n1` [Example 1, N-((2-(((Cyclobutylmethyl)amino)methyl)-1H-indol-6-yl)methyl)imidazo[1,2-b]pyridazine-2-carboxamide] came in with an IC50 of 10 to 100 nM.
The result for `O=C(NCc1ccc2cc(CNCC3CCC3)[nH]c2c1)c1cc2ncccn2n1` [Example 2, N-((2-(((Cyclobutylmethyl)amino)methyl)-1H-indol-6-yl)methyl)pyrazolo[1,5-a]pyrimidine-2-carboxamide] reads 10 to 100 nM.
The result for `O=C(NCc1ccc2cc(CNCC3CCC3)[nH]c2c1)c1cnn2cccnc12` [Example 3, N-((2-(((Cyclobutylmethyl)amino)methyl)-1H-indol-6-yl)methyl)pyrazolo[1,5-a]pyrimidine-3-carboxamide] reads 10 to 100 nM; that for `O=C(NCc1ccc2cc(CNCC3CCC3)[nH]c2c1)c1cn2nccc(N3CCOCC3)c2n1` [Example 8, N-((2-(((Cyclobutylmethyl)amino)methyl)-1H-indol-6-yl)methyl)-8-morpholinoimidazo[1,2-b]pyridazine-2-carboxamide], 100 to 1000 nM; that for `O=C(NCc1ccc2cc(CNCC3CCC3)[nH]c2c1)c1ccn(Cc2ccccc2)c(=O)c1` [Example 11, 1-Benzyl-N-((2-(((cyclobutylmethyl)amino)methyl)-1H-indol-6-yl)methyl)-2-oxo-1,2-dihydropyridine-4-carboxamide], 10 to 100 nM.
As for `CNc1nc(C(=O)NCc2ccc3cc(CNCC4CCC4)[nH]c3c2)cn2nccc12` [Example 13, N-((2-(((Cyclobutylmethyl)amino)methyl)-1H-indol-6-yl)methyl)-4-(methylamino)pyrazolo[1,5-a]pyrazine-6-carboxamide], the figure is 10 to 100 nM; as for `COc1ccc(CNc2nc(C(=O)NCc3ccc4cc(CNCC5CCC5)[nH]c4c3)cn3nccc23)cc1` [Example 14, N-((2-(((Cyclobutylmethyl)amino)methyl)-1H-indol-6-yl)methyl)-4-((4-methoxybenzyl)amino)pyrazolo[1,5-a]pyrazine-6-carboxamide], 10 to 100 nM.
Turning to `O=C(NCc1ccc2cc(CNCC3CCC3)[nH]c2c1)c1cn2nccc2c(N2CCCC2)n1` [Example 15, N-((2-(((Cyclobutylmethyl)amino)methyl)-1H-indol-6-yl)methyl)-4-(pyrrolidin-1-yl)pyrazolo[1,5-a]pyrazine-6-carboxamide], the IC50 was 100 to 1000 nM.
The result for `O=C(NCc1cc2ccc(CNCC3CCC3)cc2[nH]1)c1cc(=O)n2ccccc2n1` [Example 21, N-((6-(((Cyclobutylmethyl)amino)methyl)-1H-indol-2-yl)methyl)-4-oxo-4H-pyrido[1,2-a]pyrimidine-2-carboxamide] reads 100 to 1000 nM; that for `O=C(NCc1ccc2cc(CN3CCC(F)(F)CC3)[nH]c2c1)c1cc(=O)n2cc3c(cc2n1)OCCO3` [Example 27], 10 to 100 nM; that for `O=C(NCc1ccc2cc(CNCC3CC(=C(F)F)C3)[nH]c2c1)c1cc(=O)n2cc3c(cc2n1)OCCO3` (stereo not drawn) [Example 28, N-((2-((((3-(Difluoromethylene)cyclobutyl)methyl)amino)methyl)-1H-indol-6-yl)methyl)-9-oxo-2,3-dihydro-9H-[1,4]dioxino[2',3':4,5]pyrido[1,2-a]pyrimidine-7-carboxamide], 100 to 1000 nM.
The result for `O=C(NCc1ccc2cc(CN3CCC(F)(F)CC3)[nH]c2c1)c1cc(=O)n2cc3c(cc2n1)OCO3` [Example 29, N-((2-((4,4-Difluoropiperidin-1-yl)methyl)-1H-indol-6-yl)methyl)-8-oxo-8H-[1,3]dioxolo[4',5':4,5]pyrido[1,2-a]pyrimidine-6-carboxamide] reads 10 to 100 nM; that for `O=C(NCc1ccc2cc(CNCC3CCC3)[nH]c2c1)c1cc(=O)n2cc3c(cc2n1)OC(F)(F)O3` [Example 30, N-((2-(((Cyclobutylmethyl)amino)methyl)-1H-indol-6-yl)methyl)-2,2-difluoro-8-oxo-8H-[1,3]dioxolo[4',5':4,5]pyrido[1,2-a]pyrimidine-6-carboxamide], 10 to 100 nM.
As for `O=C(NCc1cc2[nH]c(CNCC3CCC3)cc2s1)c1cc(=O)n2cc3c(cc2n1)OCCO3` [Example 31, N-((5-(((cyclobutylmethyl)amino)methyl)-4H-thieno[3,2-b]pyrrol-2-yl)methyl)-9-oxo-2,3-dihydro-9H-[1,4]dioxino[2',3':4,5]pyrido[1,2-a]pyrimidine-7-carboxamide], the figure is 10 to 100 nM; as for `O=C(NCc1ccc2cc(CN3CCc4ccccc4C3)[nH]c2c1)c1cc(=O)n2cc3c(cc2n1)OCO3` [Example 34, N-((2-((3,4-dihydroisoquinolin-2(1H)-yl)methyl)-1H-indol-6-yl)methyl)-8-oxo-8H-[1,3]dioxolo[4',5':4,5]pyrido[1,2-a]pyrimidine-6-carboxamide], 10 to 100 nM; as for `O=C(NCc1ccc2cc(CNC3CCC(F)(F)CC3)[nH]c2c1)c1cc(=O)n2cc3c(cc2n1)OCO3` [Example 37, N-((2-(((4,4-Difluorocyclohexyl)amino)methyl)-1H-indol-6-yl)methyl)-8-oxo-8H-[1,3]dioxolo[4',5':4,5]pyrido[1,2-a]pyrimidine-6-carboxamide], 10 to 100 nM.
In turn, `O=C(NCc1ccc2cc(CNC3CC(F)(F)C3)[nH]c2c1)c1cc(=O)n2cc3c(cc2n1)OCO3` [Example 39, N-((2-(((3,3-Difluorocyclobutyl)amino)methyl)-1H-indol-6-yl)methyl)-8-oxo-8H-[1,3]dioxolo[4',5':4,5]pyrido[1,2-a]pyrimidine-6-carboxamide] displayed an IC50 of 10 to 100 nM.
The result for `O=C(NCc1ccc2cc(CNCC3(C(F)(F)F)CC3)[nH]c2c1)c1cc(=O)n2cc3c(cc2n1)OCO3` [Example 40, 8-Oxo-N-((2-((((1-(trifluoromethyl)cyclopropyl)methyl)amino)methyl)-1H-indol-6-yl)methyl)-8H-[1,3]dioxolo[4',5':4,5]pyrido[1,2-a]pyrimidine-6-carboxamide] reads 10 to 100 nM.
As for `O=C(NC1(c2ccc3cc(CNCC4CCC4)[nH]c3c2)CC1)c1cc(=O)n2cc3c(cc2n1)OCO3` [Example 42, N-(1-(2-(((Cyclobutylmethyl)amino)methyl)-1H-indol-6-yl)cyclopropyl)-8-oxo-8H-[1,3]dioxolo[4',5':4,5]pyrido[1,2-a]pyrimidine-6-carboxamide], the figure is 100 to 1000 nM; as for `O=C(NC1(c2ccc3cc(CNCC4CCC4)[nH]c3c2)CC1)c1cc(=O)n2cc3c(cc2n1)OCCO3` [Example 43, N-(1-(2-(((Cyclobutylmethyl)amino)methyl)-1H-indol-6-yl)cyclopropyl)-9-oxo-2,3-dihydro-9H-[1,4]dioxino[2',3':4,5]pyrido[1,2-a]pyrimidine-7-carboxamide], 10 to 100 nM; as for `O=C(NCc1ccc2cc(CNCC3(C(F)(F)F)CCC3)[nH]c2c1)c1cc(=O)n2cc3c(cc2n1)OCO3` [Example 56, 8-Oxo-N-((2-((((1-(trifluoromethyl)cyclobutyl)methyl)amino)methyl)-1H-indol-6-yl)methyl)-8H-[1,3]dioxolo[4',5':4,5]pyrido[1,2-a]pyrimidine-6-carboxamide], 10 to 100 nM.
Take `O=C(NCc1ccc2cc(CNCC3CC4(CCC4)C3)[nH]c2c1)c1cc(=O)n2cc3c(cc2n1)OCO3` [Example 58, 8-Oxo-N-((2-(((spiro[3.3]heptan-2-ylmethyl)amino)methyl)-1H-indol-6-yl)methyl)-8H-[1,3]dioxolo[4',5':4,5]pyrido[1,2-a]pyrimidine-6-carboxamide]: the IC50 was 10 to 100 nM.
The result for `CN1CCOc2cnn3cc(C(=O)NCc4ccc5cc(CNCC6CCC6)[nH]c5c4)nc1c23` [Example 59, N-((2-(((Cyclobutylmethyl)amino)methyl)-1H-indol-6-yl)methyl)-6-methyl-7,8-dihydro-6H-9-oxa-2,2a,5,6-tetraazabenzo[cd]azulene-4-carboxamide] reads 100 to 1000 nM; that for `O=C(NCc1ccc2cc(CNCC34CCCC3C4)[nH]c2c1)c1cc(=O)n2cc3c(cc2n1)OCO3` (stereo not drawn) [Example 60, N-((2-(((Bicyclo[3.1.0]hexan-1-ylmethyl)amino)methyl)-1H-indol-6-yl)methyl)-8-oxo-8H-[1,3]dioxolo[4',5':4,5]pyrido[1,2-a]pyrimidine-6-carboxamide], under 10 nM.
As for `O=C(NCc1ccc2cc(CNCC3CCC3)[nH]c2c1)c1cn2ncc3c2c(n1)OCCO3` [Example 61, N-((2-(((Cyclobutylmethyl)amino)methyl)-1H-indol-6-yl)methyl)-7,8-dihydro-6,9-dioxa-2,2a,5-triazabenzo[cd]azulene-4-carboxamide], the figure is 100 to 1000 nM.
The result for `[2H]C([2H])(NCC1CCC1)c1cc2ccc(CNC(=O)c3cc(=O)n4cc5c(cc4n3)OCO5)cc2[nH]1` [Example 62, N-((2-(((cyclobutylmethyl)amino)methyl-d2)-1H-indol-6-yl)methyl)-8-oxo-8H-[1,3]dioxolo[4',5':4,5]pyrido[1,2-a]pyrimidine-6-carboxamide] reads under 10 nM; that for `O=C(NCc1ccc2cc(CNCC34CCCC3C4)[nH]c2c1)c1cc(=O)n2cc3c(cc2n1)OCCO3` (stereo not drawn) [Example 63, N-((2-(((Bicyclo[3.1.0]hexan-1-ylmethyl)amino)methyl)-1H-indol-6-yl)methyl)-9-oxo-2,3-dihydro-9H-[1,4]dioxino[2',3':4,5]pyrido[1,2-a]pyrimidine-7-carboxamide], under 10 nM.
